Results taken from ChEMBL document CHEMBL1145288, “5-substituted, 6-substituted, and unsubstituted 3-heteroaromatic pyridine analogues of nicotine as selective inhibitors of cytochrome P-450 2A6” (J Med Chem, 2005).

Experiments:
Cytochrome P450 2D6 = Cytochrome P450 2D6 (Homo sapiens, UniProt P10635); test: Inhibitory concentration value against human cytochrome P-450 2D6
Cytochrome P450 2A6 [1] = target: T1, Cytochrome P450 2A6 (Homo sapiens, UniProt P11509); test: Effect on coumarin 7-hydroxylation by human Cytochrome P-450 2A6
T1 sequence (P11509 whole entry): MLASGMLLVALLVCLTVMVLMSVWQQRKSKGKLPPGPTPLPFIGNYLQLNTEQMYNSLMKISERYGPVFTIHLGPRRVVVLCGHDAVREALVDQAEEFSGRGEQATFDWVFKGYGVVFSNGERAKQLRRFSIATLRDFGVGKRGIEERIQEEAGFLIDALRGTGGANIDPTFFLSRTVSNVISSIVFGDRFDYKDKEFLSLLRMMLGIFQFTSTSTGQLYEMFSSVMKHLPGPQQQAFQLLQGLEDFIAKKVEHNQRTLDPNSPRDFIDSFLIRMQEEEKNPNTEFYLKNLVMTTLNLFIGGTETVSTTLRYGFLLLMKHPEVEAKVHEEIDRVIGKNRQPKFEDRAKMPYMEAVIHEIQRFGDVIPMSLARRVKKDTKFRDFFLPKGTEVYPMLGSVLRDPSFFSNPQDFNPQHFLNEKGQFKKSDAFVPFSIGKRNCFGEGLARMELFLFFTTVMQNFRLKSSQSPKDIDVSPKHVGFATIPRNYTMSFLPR

Cytochrome P450 2E1 = Cytochrome P450 2E1 (Homo sapiens, UniProt P05181); test: Inhibitory concentration value against human cytochrome P-450 2E1
Cytochrome P450 2C19 = Cytochrome P450 2C19 (Homo sapiens, UniProt P33261); test: Inhibitory concentration value against human cytochrome P-450 2C19
Cytochrome P450 2C9 = Cytochrome P450 2C9 (Homo sapiens, UniProt P11712); test: Inhibitory concentration against human cytochrome P-450 2C9
Cytochrome P450 3A4 = Cytochrome P450 3A4 (Homo sapiens, UniProt P08684); test: Inhibitory concentration value against human cytochrome P-450 3A4
CYP2C9 versus CYP2A6 = test: Ratio of inhibition of human cytochrome P-450 2C9 to 2A6 was determined; Expressed as IC50(CYP2C9)/IC50(CYP2A6)
CYP2D6 versus CYP2A6 = test: Ratio of inhibition of human cytochrome P-450 2D6 to 2A6 was determined; Expressed as IC50(CYP2D6)/IC50(CYP2A6)
Cytochrome P450 2B6 = target: T2, Cytochrome P450 2B6 (Homo sapiens, UniProt P20813); test: Inhibitory concentration value against human cytochrome P-450 2B6
T2 sequence (P20813 whole entry): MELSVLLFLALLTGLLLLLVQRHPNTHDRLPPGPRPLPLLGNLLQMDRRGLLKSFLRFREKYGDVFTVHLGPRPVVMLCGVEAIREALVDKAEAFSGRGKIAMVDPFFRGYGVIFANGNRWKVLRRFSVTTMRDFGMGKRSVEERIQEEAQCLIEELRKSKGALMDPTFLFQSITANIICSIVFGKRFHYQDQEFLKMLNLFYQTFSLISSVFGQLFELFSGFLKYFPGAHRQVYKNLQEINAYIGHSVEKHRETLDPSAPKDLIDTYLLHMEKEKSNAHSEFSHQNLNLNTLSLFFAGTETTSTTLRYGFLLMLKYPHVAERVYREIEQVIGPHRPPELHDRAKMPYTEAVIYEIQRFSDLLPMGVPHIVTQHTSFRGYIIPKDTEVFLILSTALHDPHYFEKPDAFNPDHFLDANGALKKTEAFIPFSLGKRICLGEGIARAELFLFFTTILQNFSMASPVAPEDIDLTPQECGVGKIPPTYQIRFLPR

CYP2B6 versus CYP2A6 = test: Ratio of inhibition of human cytochrome P-450 2B6 to 2A6 was determined; Expressed as IC50(CYP2B6)/IC50(CYP2A6)
CYP2C19 versus CYP2A6 = test: Ratio of inhibition of human cytochrome P-450 2C19 to 2A6 was determined; Expressed as IC50(CYP2C19)/IC50(CYP2A6)
CYP3A4 versus CYP2A6 = test: Ratio of inhibition of human cytochrome P-450 3A4 to 2A6 was determined; Expressed as IC50(CYP3A4)/IC50(CYP2A6)
Cytochrome P450 2A6 [2] = target: T1, Cytochrome P450 2A6; test: Inhibitory concentration value against human cytochrome P-450 2A6
CYP2E1 versus CYP2A6 = test: Ratio of inhibition of human cytochrome P-450 2E1 to 2A6 was determined; Expressed as IC50(CYP2E1)/IC50(CYP2A6)

Sequence of Cytochrome P450 3A4 (P08684 whole entry): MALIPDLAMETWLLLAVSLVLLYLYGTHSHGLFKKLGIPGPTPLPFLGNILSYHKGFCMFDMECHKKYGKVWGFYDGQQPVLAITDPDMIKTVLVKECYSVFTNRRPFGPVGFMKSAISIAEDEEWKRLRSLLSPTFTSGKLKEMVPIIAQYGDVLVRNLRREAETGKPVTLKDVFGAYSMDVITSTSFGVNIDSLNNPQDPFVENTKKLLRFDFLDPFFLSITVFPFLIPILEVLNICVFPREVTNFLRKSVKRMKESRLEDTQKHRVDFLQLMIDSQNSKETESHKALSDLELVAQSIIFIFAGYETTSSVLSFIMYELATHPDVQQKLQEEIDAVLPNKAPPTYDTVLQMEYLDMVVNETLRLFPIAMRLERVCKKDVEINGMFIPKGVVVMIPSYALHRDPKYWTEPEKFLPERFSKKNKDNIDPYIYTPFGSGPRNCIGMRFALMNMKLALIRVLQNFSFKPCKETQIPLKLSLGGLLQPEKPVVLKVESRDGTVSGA
Sequence of Cytochrome P450 2C9 (P11712 whole entry): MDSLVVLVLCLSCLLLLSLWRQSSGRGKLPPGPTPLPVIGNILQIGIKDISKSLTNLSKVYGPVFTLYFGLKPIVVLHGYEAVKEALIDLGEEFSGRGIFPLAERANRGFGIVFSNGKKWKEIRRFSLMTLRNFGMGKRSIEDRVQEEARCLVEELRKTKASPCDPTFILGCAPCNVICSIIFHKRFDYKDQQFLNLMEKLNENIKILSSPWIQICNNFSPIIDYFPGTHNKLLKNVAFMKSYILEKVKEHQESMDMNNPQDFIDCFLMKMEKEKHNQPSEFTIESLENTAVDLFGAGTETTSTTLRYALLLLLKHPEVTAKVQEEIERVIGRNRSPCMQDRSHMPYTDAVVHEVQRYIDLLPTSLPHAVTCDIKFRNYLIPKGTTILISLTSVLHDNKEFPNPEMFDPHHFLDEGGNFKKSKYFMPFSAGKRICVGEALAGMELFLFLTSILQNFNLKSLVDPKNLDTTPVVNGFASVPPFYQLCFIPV
Sequence of Cytochrome P450 2E1 (P05181 whole entry): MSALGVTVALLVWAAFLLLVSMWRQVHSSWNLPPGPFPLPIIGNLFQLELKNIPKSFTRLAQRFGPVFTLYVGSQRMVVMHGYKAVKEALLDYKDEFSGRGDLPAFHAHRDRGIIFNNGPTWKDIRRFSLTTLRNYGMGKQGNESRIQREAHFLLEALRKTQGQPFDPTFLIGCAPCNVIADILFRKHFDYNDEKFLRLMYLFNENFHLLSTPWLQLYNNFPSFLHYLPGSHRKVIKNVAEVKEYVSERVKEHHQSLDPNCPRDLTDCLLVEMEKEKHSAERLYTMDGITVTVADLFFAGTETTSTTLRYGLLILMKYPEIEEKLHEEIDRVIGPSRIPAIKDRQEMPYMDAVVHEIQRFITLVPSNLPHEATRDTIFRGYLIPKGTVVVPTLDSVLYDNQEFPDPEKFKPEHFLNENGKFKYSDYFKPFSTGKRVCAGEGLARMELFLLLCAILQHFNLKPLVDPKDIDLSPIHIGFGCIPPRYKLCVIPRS
Sequence of Cytochrome P450 2C19 (P33261 whole entry): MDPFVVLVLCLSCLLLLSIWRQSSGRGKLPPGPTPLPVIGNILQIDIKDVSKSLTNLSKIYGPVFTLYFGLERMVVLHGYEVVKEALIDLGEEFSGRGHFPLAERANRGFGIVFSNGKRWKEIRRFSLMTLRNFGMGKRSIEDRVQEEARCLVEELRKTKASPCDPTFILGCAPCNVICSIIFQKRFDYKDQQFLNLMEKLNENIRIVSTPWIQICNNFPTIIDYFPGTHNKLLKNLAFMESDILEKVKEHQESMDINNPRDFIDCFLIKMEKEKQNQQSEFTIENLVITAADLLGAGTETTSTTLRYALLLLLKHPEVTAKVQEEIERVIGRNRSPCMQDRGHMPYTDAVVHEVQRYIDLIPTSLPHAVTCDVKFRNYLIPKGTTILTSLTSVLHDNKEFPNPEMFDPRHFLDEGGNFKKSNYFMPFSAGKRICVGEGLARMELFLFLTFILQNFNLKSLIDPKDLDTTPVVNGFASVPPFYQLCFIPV
Sequence of Cytochrome P450 2D6 (P10635 whole entry): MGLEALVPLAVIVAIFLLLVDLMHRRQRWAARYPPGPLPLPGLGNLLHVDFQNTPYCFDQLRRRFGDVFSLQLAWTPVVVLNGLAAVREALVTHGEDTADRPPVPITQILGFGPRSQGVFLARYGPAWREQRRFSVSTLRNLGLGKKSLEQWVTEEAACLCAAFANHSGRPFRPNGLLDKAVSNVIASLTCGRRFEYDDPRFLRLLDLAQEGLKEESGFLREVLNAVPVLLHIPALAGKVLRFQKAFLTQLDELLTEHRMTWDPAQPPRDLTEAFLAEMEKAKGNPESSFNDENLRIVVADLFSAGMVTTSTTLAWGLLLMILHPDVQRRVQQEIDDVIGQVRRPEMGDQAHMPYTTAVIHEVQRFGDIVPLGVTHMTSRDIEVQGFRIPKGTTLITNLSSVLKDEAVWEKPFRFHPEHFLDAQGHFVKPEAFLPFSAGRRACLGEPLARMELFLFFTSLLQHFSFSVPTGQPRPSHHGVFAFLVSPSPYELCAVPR

SMILES	IC50 (Cytochrome P450 2D6) [µM]	Ki (Cytochrome P450 2A6 [1]) [µM]	IC50 (Cytochrome P450 2E1) [µM]	IC50 (Cytochrome P450 2C19) [µM]	IC50 (Cytochrome P450 2C9) [µM]	IC50 (Cytochrome P450 2B6) [µM]	further results
O/N=C/c1ccc(-c2cccnc2)o1.O/N=C\c1ccc(-c2cccnc2)o1	> 400	–	–	–	–	–	–
Cc1nc(-c2cccnc2)c[nH]1	–	6.2	–	–	–	–	–
Clc1ccc(-c2cccnc2)cn1	–	6.3	–	–	–	–	–
c1cncc(-c2cccnc2)c1	> 300	–	> 300	> 300	> 300	–	–
c1cncc(-c2ccc(CNCc3ccc(-c4cccnc4)s3)s2)c1	–	–	–	–	–	–	IC50 (Cytochrome P450 3A4): > 400 µM
O/N=C/c1ccc(-c2cccnc2)s1	191	0.24	4.2	37.2	223	214	selectivity ratio (CYP2C9 versus CYP2A6): 159; selectivity ratio (CYP2D6 versus CYP2A6): 136; selectivity ratio (CYP2B6 versus CYP2A6): 153; selectivity ratio (CYP2C19 versus CYP2A6): 27; selectivity ratio (CYP3A4 versus CYP2A6): 9.3; IC50 (Cytochrome P450 2A6 [2]): 1.4 µM; selectivity ratio (CYP2E1 versus CYP2A6): 3
CNCC#Cc1cccnc1	–	0.89	–	–	–	–	–
Cc1cscc1-c1ccc(F)nc1	–	–	–	–	> 400	–	–
CN1CCC[C@H]1c1cccnc1 [NICOTINE]	–	4.4	–	–	–	–	–
N=Cc1ccc(-c2cccnc2)s1.N=Cc1ccc(-c2cccnc2)s1.NCc1ccc(-c2cccnc2)s1	197	–	77.5	–	–	256	IC50 (Cytochrome P450 3A4): 77.5 µM; IC50 (Cytochrome P450 2A6 [2]): 3.7 µM
c1ccc(-c2cccnc2)nc1 [[2,3'']Bipyridinyl]	–	7.7	–	–	–	–	–
c1cncc(-c2nccs2)c1	–	3.2	–	–	–	–	–
Brc1cncc(-c2ccsc2)c1	–	4.5	–	–	–	–	–
CCn1cnc(-c2cccnc2)c1	344	0.52	80	46.4	75.2	83.1	selectivity ratio (CYP2C9 versus CYP2A6): 24; selectivity ratio (CYP2D6 versus CYP2A6): 111; selectivity ratio (CYP2B6 versus CYP2A6): 26; IC50 (Cytochrome P450 3A4): 79.2 µM; selectivity ratio (CYP2C19 versus CYP2A6): 15; selectivity ratio (CYP3A4 versus CYP2A6): 26; selectivity ratio (CYP2E1 versus CYP2A6): 26
NCc1ccc(-c2cccnc2)cc1	–	1.4	–	–	–	–	–
Cc1cccnc1-c1cccnc1	–	43.7	–	–	–	–	–
CNc1ccc(-c2cccnc2)s1	14.4	0.59	31.1	3.2	2.1	6.8	selectivity ratio (CYP2C9 versus CYP2A6): 0.6; selectivity ratio (CYP2D6 versus CYP2A6): 4.1; selectivity ratio (CYP2B6 versus CYP2A6): 1.9; IC50 (Cytochrome P450 3A4): 6.3 µM; selectivity ratio (CYP2C19 versus CYP2A6): 0.9; selectivity ratio (CYP3A4 versus CYP2A6): 2; IC50 (Cytochrome P450 2A6 [2]): 3.5 µM; selectivity ratio (CYP2E1 versus CYP2A6): 8.9
Cc1ccc(-c2cccnc2)nc1	–	2.7	–	–	–	–	–
Cc1ccsc1-c1cncc(Br)c1	–	1.5	–	–	–	–	–
Cc1cccc(-c2cccnc2)n1	–	9.8	–	–	–	–	–

SMILES	IC50 (Cytochrome P450 2D6) [µM]	Ki (Cytochrome P450 2A6 [1]) [µM]	IC50 (Cytochrome P450 2E1) [µM]	IC50 (Cytochrome P450 2C19) [µM]	IC50 (Cytochrome P450 2C9) [µM]	IC50 (Cytochrome P450 2B6) [µM]	further results
O/N=C/c1ccc(-c2cccnc2)o1	> 400	0.71	> 400	118	86.2	372	selectivity ratio (CYP2C9 versus CYP2A6): 1; IC50 (Cytochrome P450 3A4): > 400 µM; selectivity ratio (CYP2C19 versus CYP2A6): 1.4
CC(=O)c1ccc(-c2cccnc2)s1	387	1.4	> 400	62.7	98.2	217	selectivity ratio (CYP2C9 versus CYP2A6): 11; selectivity ratio (CYP2D6 versus CYP2A6): 45; selectivity ratio (CYP2B6 versus CYP2A6): 25; selectivity ratio (CYP2C19 versus CYP2A6): 7; selectivity ratio (CYP3A4 versus CYP2A6): 3.1; selectivity ratio (CYP2E1 versus CYP2A6): > 46
Cc1ccnc(-c2cccnc2)c1	–	5.1	–	–	–	–	–
COc1ccc(-c2cscc2C)cn1	–	6.6	–	–	–	–	–
Cc1cn(-c2cccnc2)cn1	297	0.17	57.9	> 300	> 300	> 300	IC50 (Cytochrome P450 2A6 [2]): 1 µM
c1cncc(-c2cccs2)c1	> 400	–	4.1	178	99.2	70.8	–
O=[N+]([O-])c1ccc(-c2cccnc2)s1	–	19.7	–	–	–	–	–
NCc1ccc(-c2cccnc2)o1	–	–	–	–	–	–	selectivity ratio (CYP2D6 versus CYP2A6): 4.1
COc1ccc(-c2sccc2C)cn1	–	≥ 67	–	–	–	–	–
c1cncc(-n2cnnn2)c1	–	≥ 67	–	–	–	–	–
Cn1cnc(-c2cccnc2)c1	217	0.13	4.1	122	79.5	146	selectivity ratio (CYP2D6 versus CYP2A6): 289
C[n+]1c[nH]cc1-c1cccnc1	217	0.13	4.1	122	79.5	146	selectivity ratio (CYP2C9 versus CYP2A6): 106; selectivity ratio (CYP2D6 versus CYP2A6): 289; selectivity ratio (CYP2B6 versus CYP2A6): 195; IC50 (Cytochrome P450 3A4): 262 µM; selectivity ratio (CYP2C19 versus CYP2A6): 163; selectivity ratio (CYP3A4 versus CYP2A6): 349; IC50 (Cytochrome P450 2A6 [2]): 0.75 µM; selectivity ratio (CYP2E1 versus CYP2A6): 5
Fc1ccc(-c2ccsc2)cn1	199	0.97	7.2	182	> 400	72.1	selectivity ratio (CYP2C9 versus CYP2A6): > 69; selectivity ratio (CYP2D6 versus CYP2A6): 34; selectivity ratio (CYP2B6 versus CYP2A6): 12; IC50 (Cytochrome P450 3A4): 114 µM; selectivity ratio (CYP2C19 versus CYP2A6): 31; selectivity ratio (CYP3A4 versus CYP2A6): 20; IC50 (Cytochrome P450 2A6 [2]): 5.8 µM; selectivity ratio (CYP2E1 versus CYP2A6): 1.2
O/N=C\c1ccc(-c2cccnc2)o1	> 400	13.7	> 400	279	398	128	selectivity ratio (CYP2C9 versus CYP2A6): 94; selectivity ratio (CYP2D6 versus CYP2A6): > 95; IC50 (Cytochrome P450 3A4): > 400 µM; selectivity ratio (CYP2C19 versus CYP2A6): 66; selectivity ratio (CYP3A4 versus CYP2A6): > 95; IC50 (Cytochrome P450 2A6 [2]): 4.2 µM
Cc1ccsc1-c1ccc(F)nc1	–	0.21	–	–	–	–	–
c1cncc(-c2cncnc2)c1	–	27.4	–	–	–	–	–
Cc1cncc(-c2cscc2C)c1	–	0.17	–	–	–	–	–
c1cncc(-c2ccsc2)c1	248	0.22	> 400	111	96.3	59.1	selectivity ratio (CYP2C9 versus CYP2A6): 69; selectivity ratio (CYP2D6 versus CYP2A6): 177; selectivity ratio (CYP2B6 versus CYP2A6): 42; IC50 (Cytochrome P450 3A4): 56.9 µM; selectivity ratio (CYP2C19 versus CYP2A6): 81; selectivity ratio (CYP3A4 versus CYP2A6): 400; IC50 (Cytochrome P450 2A6 [2]): 1.4 µM; selectivity ratio (CYP2E1 versus CYP2A6): > 286
O=Cc1ccc(-c2cccnc2)o1	–	≥ 67	–	–	–	–	–
